US20250228835A1, “PYRIDINYLOXYPYRIDINES AND RELATED COMPOUNDS AND THEIR USE IN TREATING MEDICAL CONDITIONS” (Rectify Pharmaceuticals, Inc., priority 2024, published 2025)
pEC50: −log10 of the molar value. Read-outs that look alike come from different tables or passages of the source.

What was measured:
Type in all cases: cell-based
ABCA4 P1380L = target: T1, ABCA4 P1380L (Homo sapiens, UniProt P78363, P1380L); experiment: A4 correction dose-response assay: ABCA4 P1380L HiBit protein expression; settings: HEK-293 cells stably expressing HiBit-tagged ABCA4 P1380L, 24 h treatment, top concentration 30 μM
T1 construct: expressed in transfected cells
Summary of the method: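 Cells transfected with HiBit-tagged human ABCA4 P1380L cDNA were treated for 24 h at 37°C with an eleven-point dilution series (top final 30 μM, 0.3% DMSO).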

ABCB4 WT = target: T2, ABCB4 WT (Homo sapiens, UniProt P21439); experiment: ABCB4 WT assay: HiBit protein expression; settings: HEK-293 cells stably expressing HiBit-tagged ABCB4 WT; 24 h treatment; top concentration 30 μM; read-out: ABCB4 WT EC50, Emax
T2 construct: expressed in transfected cells
Summary of the method: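 HEK-293 cells stably expressing HiBit-tagged human ABCB4 WT, treated 24 h at 37 °C with 11-dose 3-fold dilutions, top final 30 μM in 0.3% DMSO. HiBit lytic reagent luminescence read after 1 h at 25 °C; Emax and EC50 derived.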

ABCC6 WT = target: T3, ABCC6 WT (Homo sapiens, UniProt O95255); experiment: ABCC6 WT assay: HiBit protein expression; settings: HEK-293 cells transiently expressing HiBit-tagged ABCC6 WT; 24 h treatment; top concentration 20 μM; read-out: ABCC6 WT EC50, Emax
T3 construct: expressed in transfected cells; host or cells: HEK-293 (transient, Lipofectamine 2000)
Summary of the method: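 HEK-293 cells transiently transfected with HiBit-tagged human ABCC6 WT cDNA, seeded 24 h post-transfection, treated 24 h at 37° C with ten 2-fold doses (top 20 μM final, 0.15% DMSO). HiBit lytic luminescence reports protein expression; Emax and EC50 derived.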

[1] = read-out: ABCA4 P1380L EC50, Emax

T1 sequence (P78363 whole entry P1380L): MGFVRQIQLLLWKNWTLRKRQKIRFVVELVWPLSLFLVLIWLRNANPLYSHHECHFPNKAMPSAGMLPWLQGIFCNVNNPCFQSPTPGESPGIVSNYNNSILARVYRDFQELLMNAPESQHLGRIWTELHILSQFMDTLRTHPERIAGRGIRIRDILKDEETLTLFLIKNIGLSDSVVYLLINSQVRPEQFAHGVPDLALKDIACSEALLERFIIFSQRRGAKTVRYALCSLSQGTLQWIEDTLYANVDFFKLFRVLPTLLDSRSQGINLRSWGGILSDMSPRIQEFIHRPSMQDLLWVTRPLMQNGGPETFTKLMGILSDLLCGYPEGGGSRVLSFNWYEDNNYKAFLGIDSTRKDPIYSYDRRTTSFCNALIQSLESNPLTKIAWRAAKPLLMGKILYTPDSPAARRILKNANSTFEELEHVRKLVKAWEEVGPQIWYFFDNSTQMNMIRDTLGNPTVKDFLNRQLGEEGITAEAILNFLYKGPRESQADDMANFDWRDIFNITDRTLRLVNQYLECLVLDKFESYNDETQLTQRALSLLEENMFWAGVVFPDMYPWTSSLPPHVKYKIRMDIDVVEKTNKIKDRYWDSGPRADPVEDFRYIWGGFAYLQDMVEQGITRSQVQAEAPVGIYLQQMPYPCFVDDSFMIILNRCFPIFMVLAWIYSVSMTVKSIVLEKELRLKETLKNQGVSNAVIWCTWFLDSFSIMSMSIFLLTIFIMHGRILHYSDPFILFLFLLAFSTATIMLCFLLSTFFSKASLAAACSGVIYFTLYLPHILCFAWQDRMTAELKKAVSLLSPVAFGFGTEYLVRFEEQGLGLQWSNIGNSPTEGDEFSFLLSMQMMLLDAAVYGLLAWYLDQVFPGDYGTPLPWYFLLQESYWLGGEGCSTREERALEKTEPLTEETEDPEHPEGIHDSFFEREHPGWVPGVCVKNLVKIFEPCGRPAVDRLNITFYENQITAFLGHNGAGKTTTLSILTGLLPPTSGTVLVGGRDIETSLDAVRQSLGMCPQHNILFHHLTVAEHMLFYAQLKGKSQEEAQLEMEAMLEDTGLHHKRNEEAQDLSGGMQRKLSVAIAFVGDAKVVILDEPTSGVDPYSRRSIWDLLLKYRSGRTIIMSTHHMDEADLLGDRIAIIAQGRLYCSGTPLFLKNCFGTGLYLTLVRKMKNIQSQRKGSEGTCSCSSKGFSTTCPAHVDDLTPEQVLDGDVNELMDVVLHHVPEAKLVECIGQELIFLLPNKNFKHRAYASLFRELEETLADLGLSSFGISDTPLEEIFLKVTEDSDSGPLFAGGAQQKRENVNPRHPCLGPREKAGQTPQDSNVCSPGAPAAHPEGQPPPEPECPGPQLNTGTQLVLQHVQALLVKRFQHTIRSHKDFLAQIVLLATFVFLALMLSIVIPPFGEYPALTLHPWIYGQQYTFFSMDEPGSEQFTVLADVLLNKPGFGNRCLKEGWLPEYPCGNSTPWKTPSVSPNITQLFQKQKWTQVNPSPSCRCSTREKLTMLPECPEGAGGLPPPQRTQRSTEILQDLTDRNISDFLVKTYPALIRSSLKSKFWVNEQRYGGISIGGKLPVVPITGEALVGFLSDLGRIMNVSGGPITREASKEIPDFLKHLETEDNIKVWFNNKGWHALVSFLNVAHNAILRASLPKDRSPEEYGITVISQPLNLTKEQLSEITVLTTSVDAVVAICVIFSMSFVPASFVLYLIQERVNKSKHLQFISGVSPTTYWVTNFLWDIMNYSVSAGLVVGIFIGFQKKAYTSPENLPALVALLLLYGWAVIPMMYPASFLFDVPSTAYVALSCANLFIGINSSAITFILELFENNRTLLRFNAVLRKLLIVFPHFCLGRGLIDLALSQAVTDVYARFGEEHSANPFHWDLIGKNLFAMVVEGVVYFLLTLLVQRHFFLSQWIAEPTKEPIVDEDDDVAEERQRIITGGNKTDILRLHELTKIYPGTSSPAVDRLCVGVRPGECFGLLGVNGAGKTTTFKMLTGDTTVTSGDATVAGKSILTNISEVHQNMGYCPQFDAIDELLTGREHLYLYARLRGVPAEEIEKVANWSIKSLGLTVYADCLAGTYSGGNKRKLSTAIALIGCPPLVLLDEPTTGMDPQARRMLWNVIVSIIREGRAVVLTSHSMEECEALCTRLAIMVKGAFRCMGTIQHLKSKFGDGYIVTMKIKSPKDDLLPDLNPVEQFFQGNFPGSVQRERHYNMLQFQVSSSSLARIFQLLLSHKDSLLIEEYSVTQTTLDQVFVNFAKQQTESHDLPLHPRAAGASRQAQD
T3 sequence (O95255 whole entry): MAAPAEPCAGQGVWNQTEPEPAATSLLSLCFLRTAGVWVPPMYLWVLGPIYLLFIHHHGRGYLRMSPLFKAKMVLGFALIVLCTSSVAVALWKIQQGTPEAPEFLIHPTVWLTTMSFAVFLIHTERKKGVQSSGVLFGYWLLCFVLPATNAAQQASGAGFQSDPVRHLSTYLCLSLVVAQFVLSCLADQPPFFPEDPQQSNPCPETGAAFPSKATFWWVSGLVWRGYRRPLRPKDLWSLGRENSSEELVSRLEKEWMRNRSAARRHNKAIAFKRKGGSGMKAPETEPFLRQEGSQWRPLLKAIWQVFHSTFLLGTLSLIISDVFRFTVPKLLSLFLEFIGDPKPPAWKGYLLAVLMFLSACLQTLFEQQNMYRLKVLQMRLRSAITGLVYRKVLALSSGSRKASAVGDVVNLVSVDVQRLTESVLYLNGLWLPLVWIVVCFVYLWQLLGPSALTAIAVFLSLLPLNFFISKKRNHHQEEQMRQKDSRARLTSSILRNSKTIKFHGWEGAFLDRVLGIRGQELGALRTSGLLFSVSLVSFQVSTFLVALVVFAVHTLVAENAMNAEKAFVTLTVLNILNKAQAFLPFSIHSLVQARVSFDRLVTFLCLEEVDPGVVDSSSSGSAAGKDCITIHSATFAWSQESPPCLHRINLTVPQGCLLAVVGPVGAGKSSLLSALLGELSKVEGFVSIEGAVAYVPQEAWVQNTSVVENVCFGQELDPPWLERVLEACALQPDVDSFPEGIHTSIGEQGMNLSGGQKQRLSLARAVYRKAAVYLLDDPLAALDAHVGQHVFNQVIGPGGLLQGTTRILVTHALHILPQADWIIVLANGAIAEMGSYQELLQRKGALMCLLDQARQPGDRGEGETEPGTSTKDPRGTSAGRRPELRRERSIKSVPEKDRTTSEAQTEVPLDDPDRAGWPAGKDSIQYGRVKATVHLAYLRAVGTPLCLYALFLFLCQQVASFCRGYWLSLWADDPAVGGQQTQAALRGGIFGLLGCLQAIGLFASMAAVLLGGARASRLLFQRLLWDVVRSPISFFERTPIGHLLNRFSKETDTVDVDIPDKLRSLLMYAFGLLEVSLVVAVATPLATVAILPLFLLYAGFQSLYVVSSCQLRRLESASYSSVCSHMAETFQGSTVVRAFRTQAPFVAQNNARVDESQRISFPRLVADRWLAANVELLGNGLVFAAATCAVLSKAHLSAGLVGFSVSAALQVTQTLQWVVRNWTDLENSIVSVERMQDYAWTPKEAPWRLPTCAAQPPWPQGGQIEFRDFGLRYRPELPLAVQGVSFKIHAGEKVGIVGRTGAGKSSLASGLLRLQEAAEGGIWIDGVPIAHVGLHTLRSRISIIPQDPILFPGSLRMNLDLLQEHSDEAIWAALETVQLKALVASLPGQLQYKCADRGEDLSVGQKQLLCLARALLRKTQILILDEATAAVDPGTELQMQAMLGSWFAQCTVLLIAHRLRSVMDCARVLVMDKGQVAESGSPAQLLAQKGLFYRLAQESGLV
T2 sequence (P21439 whole entry): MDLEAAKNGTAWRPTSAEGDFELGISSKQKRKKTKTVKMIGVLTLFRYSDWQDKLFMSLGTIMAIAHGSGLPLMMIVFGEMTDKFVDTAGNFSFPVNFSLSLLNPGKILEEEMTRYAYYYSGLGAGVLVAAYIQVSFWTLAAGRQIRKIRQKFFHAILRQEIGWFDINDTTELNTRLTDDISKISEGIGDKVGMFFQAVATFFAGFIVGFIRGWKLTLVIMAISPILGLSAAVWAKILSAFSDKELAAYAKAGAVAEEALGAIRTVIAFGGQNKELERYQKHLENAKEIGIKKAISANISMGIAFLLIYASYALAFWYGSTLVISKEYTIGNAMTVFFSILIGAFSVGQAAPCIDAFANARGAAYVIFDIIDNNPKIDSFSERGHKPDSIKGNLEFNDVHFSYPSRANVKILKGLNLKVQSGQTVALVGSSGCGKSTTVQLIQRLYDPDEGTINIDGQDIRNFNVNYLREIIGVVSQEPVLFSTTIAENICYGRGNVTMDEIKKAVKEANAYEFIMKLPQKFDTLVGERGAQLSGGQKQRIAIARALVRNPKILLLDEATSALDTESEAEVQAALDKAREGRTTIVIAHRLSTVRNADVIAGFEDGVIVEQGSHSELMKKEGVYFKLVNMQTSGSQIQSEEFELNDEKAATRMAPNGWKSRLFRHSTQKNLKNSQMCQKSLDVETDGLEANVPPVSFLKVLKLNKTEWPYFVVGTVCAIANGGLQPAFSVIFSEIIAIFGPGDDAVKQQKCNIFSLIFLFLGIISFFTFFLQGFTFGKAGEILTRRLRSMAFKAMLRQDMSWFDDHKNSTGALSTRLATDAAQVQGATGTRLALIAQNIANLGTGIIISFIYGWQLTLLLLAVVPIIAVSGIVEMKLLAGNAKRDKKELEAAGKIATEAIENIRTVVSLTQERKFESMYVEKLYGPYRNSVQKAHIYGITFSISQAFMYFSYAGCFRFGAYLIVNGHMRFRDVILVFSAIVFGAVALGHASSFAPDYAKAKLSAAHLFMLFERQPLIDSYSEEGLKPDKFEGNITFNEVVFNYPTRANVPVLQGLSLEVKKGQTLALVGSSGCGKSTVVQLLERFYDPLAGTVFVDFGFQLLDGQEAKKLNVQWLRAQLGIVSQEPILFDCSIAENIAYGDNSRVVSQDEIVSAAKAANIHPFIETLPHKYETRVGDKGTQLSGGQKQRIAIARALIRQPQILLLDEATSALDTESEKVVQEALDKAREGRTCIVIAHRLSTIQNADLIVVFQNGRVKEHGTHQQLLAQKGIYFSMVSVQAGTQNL

SMILES | pEC50 (ABCA4 P1380L; [1]) | pEC50 (ABCB4 WT) | pEC50 (ABCC6 WT) | pEC50 (ABCA4 P1380L; ABCA4 P1380L EC50, Emax)
Cc1cc(C)c(Oc2nc(N3CC4CC3CN4C(=O)C3CC3)ccc2NS(C)(=O)=O)c(C)c1 (single isomer, unassigned) [Compound I-18] | 4.60 to 5.00 | ≤ 4.60 | 5.00 to 6.00 | –
Cc1cc(C2CC2)nc(C)c1Oc1nc(-n2ccc(C#N)n2)ccc1NS(C)(=O)=O [Compound I-255] | < 4.60 | ≤ 4.60 | 5.00 to 6.00 | –
Cc1cc(C)c(Oc2nc(N3CC4(CN(C(=O)C5CC5)C4)C3)ccc2NS(C)(=O)=O)c(C)c1 [Compound I-38] | < 4.60 | ≤ 4.60 | ≤ 4.60 | –
Cc1cc(C)c(Oc2nc(-c3cncc(Cl)c3)cnc2NS(C)(=O)=O)c(C)c1 [Compound I-277] | > 4.60 | ≤ 4.60 | > 6.00 | –
Cc1cc(C)c(Oc2nc(-c3cncc(Cl)c3)cnc2NS(C)(=O)=O)c(C)n1 [Compound I-260] | < 4.60 | ≤ 4.60 | 5.00 to 6.00 | –
Cc1cc(C)c(Oc2nc(N3CC4CC(C3)N4C(=O)C3CC3)ccc2NS(C)(=O)=O)c(C)c1 [Compound I-22] | 5.00 to 6.00 | 5.00 to 6.00 | 5.00 to 6.00 | –
Cc1cc(C)c(Oc2nc(-n3cc(C#N)cn3)ccc2NS(C)(=O)=O)c(C)c1 [Compound I-274] | > 6.00 | > 4.60 | > 6.00 | –
Cc1cc(C)c(Oc2nc(-n3cnc(C#N)c3)ccc2NS(C)(=O)=O)c(C)c1 [Compound I-273] | > 4.60 | > 4.60 | > 6.00 | –
Cc1cc(C)c(Oc2nc(-c3ccnc(C#N)c3)ccc2NS(C)(=O)=O)c(C)n1 [Compound I-239] | > 6.00 | > 4.60 | > 6.00 | –
Cc1cc(C)c(Oc2nc(-c3cccc(C#N)n3)ccc2NS(C)(=O)=O)c(C)n1 [Compound I-241] | < 4.60 | 4.60 to 5.00 | 4.60 to 5.00 | –
Cc1cc(C)c(Oc2nc(-c3cncc(Cl)c3)ncc2NS(C)(=O)=O)c(C)n1 [Compound I-246] | > 6.00 | > 4.60 | > 6.00 | –
Cc1cc(C)c(Oc2nc(N3CCN(C(=O)OC(C)C)CC3)ccc2NS(C)(=O)=O)c(C)c1 [Compound I-32] | 5.00 to 6.00 | ≤ 4.60 | 5.00 to 6.00 | –
Cc1cc(C)c(Oc2nc(N3CC4(CCN(C(=O)C5CC5)C4)C3)ccc2NS(C)(=O)=O)c(C)c1 [Compound I-31] | < 4.60 | ≤ 4.60 | 5.00 to 6.00 | –
Cc1cc(C)c(Oc2nc(N3C4CC3CN(C(=O)C3CC3)C4)ccc2NS(C)(=O)=O)c(C)c1 [Compound I-35] | < 4.60 | ≤ 4.60 | ≤ 4.60 | –
Cc1cc(C2CC2)nc(C)c1Oc1nc(-n2cnc(C#N)c2)ccc1NS(C)(=O)=O [Compound I-254] | > 6.00 | > 4.60 | > 6.00 | –
Cc1cc(C)c(Oc2nc(-c3cncc(C#N)c3)ccc2S(N)(=O)=O)c(C)n1 [Compound I-258] | – | > 4.60 | 4.60 to 5.00 | 5.00 to 6.00
Cc1cc(C)c(Oc2nc(-c3cncc(C#N)c3)cnc2NS(C)(=O)=O)c(C)c1 [Compound I-275] | > 4.60 | ≤ 4.60 | > 6.00 | –
Cc1cc(C)c(Oc2nc(N3CCN(C(=O)C4COC4)CC3)ccc2NS(C)(=O)=O)c(C)c1 [Compound I-23] | 4.60 to 5.00 | 4.60 to 5.00 | 4.60 to 5.00 | –
Cc1cc(C)c(Oc2nc(N3CCC(C#N)CC3)ccc2NS(C)(=O)=O)c(C)c1 [Compound I-244] | 4.60 to 5.00 | ≤ 4.60 | 5.00 to 6.00 | –
Cc1cc(C)c(Oc2nc(-c3cncc(C#N)c3)cnc2NS(C)(=O)=O)c(C)n1 [Compound I-259] | > 4.60 | ≤ 4.60 | 5.00 to 6.00 | –
Cc1cc(C)c(Oc2nc(-c3cncc(Cl)c3)ccc2NS(=O)(=O)C2COC2)c(C)c1 [Compound I-41] | > 6.00 | ≤ 4.60 | > 6.00 | –

The remaining lines, values ahead:

pEC50 (ABCA4 P1380L; [1]) | pEC50 (ABCB4 WT) | pEC50 (ABCC6 WT) | pEC50 (ABCA4 P1380L; ABCA4 P1380L EC50, Emax) | SMILES
5.00 to 6.00 | > 6.00 | > 6.00 | – | Cc1cc(C)c(Oc2nc(N3CCN(C(=O)C4CCC4)CC3)ccc2NS(C)(=O)=O)c(C)c1 [Compound I-24]
> 6.00 | 5.00 to 6.00 | > 6.00 | – | Cc1cc(C2CC2)cc(C)c1Oc1nc(-c2cncc(C#N)c2)ccc1NS(C)(=O)=O [Compound I-271]
5.00 to 6.00 | 5.00 to 6.00 | ≤ 4.60 | – | Cc1cc(C2CC2)nc(C)c1Oc1nc(N2CCN(C(=O)C3CC3)CC2)ccc1NS(C)(=O)=O [Compound I-28]
> 6.00 | 5.00 to 6.00 | 5.00 to 6.00 | – | Cc1cc(C)c(Oc2nc(N3CCn4c(cnc4C)C3)ccc2NS(C)(=O)=O)c(C)c1 [Compound I-30]
> 4.60 | > 6.00 | > 6.00 | – | Cc1cc(C)c(Oc2nc(-c3cncc(C#N)c3)ccc2NS(=O)(=O)C2COC2)c(C)c1 [Compound I-267]
< 4.60 | > 6.00 | > 6.00 | – | Cc1cc(C2CC2)nc(C)c1Oc1nc(-n2cc(C#N)cn2)ccc1NS(C)(=O)=O [Compound I-256]
5.00 to 6.00 | 5.00 to 6.00 | > 6.00 | – | Cc1cc(C)c(Oc2nc(-c3cncc(C#N)c3)ccc2S(=N)(=O)C2CC2)c(C)c1 (stereo not drawn) [Compound I-245]
< 4.60 | > 4.60 | 5.00 to 6.00 | – | Cc1cc(C)c(Oc2nc(N3CCn4c(C)nnc4C3)ccc2NS(C)(=O)=O)c(C)c1 [Compound I-21]
4.60 to 5.00 | 5.00 to 6.00 | 5.00 to 6.00 | – | Cc1cc(C)c(Oc2nc(N3CCN(C(=O)C(C)(C)C)CC3)ccc2NS(C)(=O)=O)c(C)c1 [Compound I-34]
5.00 to 6.00 | 5.00 to 6.00 | 5.00 to 6.00 | – | Cc1cc(C2CC2)nc(C)c1Oc1nc(-c2cncc(S(C)(=O)=O)c2)ccc1NS(C)(=O)=O [Compound I-263]
> 6.00 | > 6.00 | > 6.00 | – | Cc1cc(C)c(Oc2nc(-c3cncc(C#N)c3)ccc2NS(=O)(=O)C(C)C)c(C)n1 [Compound I-276]
5.00 to 6.00 | > 6.00 | 5.00 to 6.00 | – | CNS(=O)(=O)c1ccc(-c2cncc(C#N)c2)nc1Oc1c(C)cc(C)nc1C [Compound I-265]
> 6.00 | > 6.00 | > 6.00 | – | Cc1cc(C)c(Oc2nc(-c3cncc(C#N)c3)ccc2S(C)(=N)=O)c(C)c1 (stereo not drawn) [Compound I-279]
> 6.00 | > 6.00 | > 6.00 | – | Cc1cc(C)c(Oc2nc(-c3cncc(C#N)c3)ccc2NS(=O)(=O)C2CC2)c(C)n1 [Compound I-266]
5.00 to 6.00 | > 4.60 | > 6.00 | – | Cc1cc(C)c(Oc2nc(-c3cncc(Cl)c3)ccc2NS(=O)(=O)C2CC2)c(C)n1 [Compound I-238]
< 4.60 | 5.00 to 6.00 | > 6.00 | – | Cc1cc(C(F)F)cc(C2CC2)c1Oc1nc(-c2cncc(C#N)c2)ccc1S(=N)(=O)C1CC1 (stereo not drawn) [Compound I-319]
> 4.60 | 5.00 to 6.00 | 5.00 to 6.00 | – | Cc1cc(C)c(Oc2nc(-c3cncc(C#N)c3)ccc2NS(=O)(=O)C2CCC2)c(C)c1 [Compound I-253]
> 6.00 | > 6.00 | > 6.00 | – | Cc1cc(C)c(Oc2nc(-c3cncc(C#N)c3)c(O)cc2NS(C)(=O)=O)c(C)n1 [Compound I-327]
> 6.00 | > 6.00 | > 6.00 | – | CCS(=O)(=O)Nc1ccc(-c2cncc(C#N)c2)nc1Oc1c(C)cc(C)nc1C [Compound I-247]
> 6.00 | > 6.00 | > 6.00 | – | Cc1cc(C)c(Oc2nc(-c3cncc(C#N)c3)ccc2NS(=O)(=O)C2CCC2)c(C)n1 [Compound I-243]
> 6.00 | > 6.00 | > 6.00 | – | Cc1cc(C)c(Oc2nc(-c3cncc(Cl)c3)ccc2NS(C)(=O)=O)c(C2CC2)n1 [Compound I-40]
> 6.00 | > 6.00 | > 6.00 | – | Cc1cc(C)c(Oc2nc(-c3cncc(C#N)c3)ccc2S(N)(=O)=O)c(C)c1 [Compound I-280]
< 4.60 | 5.00 to 6.00 | ≤ 4.60 | – | Cc1cc(C)c(Oc2nc(N3CCN(S(C)(=O)=O)CC3)ccc2NS(C)(=O)=O)c(C)c1 [Compound I-26]
5.00 to 6.00 | > 6.00 | 5.00 to 6.00 | – | Cc1cc(C)c(Oc2nc(-c3ccc(C#N)nc3C)ccc2NS(C)(=O)=O)c(C)n1 [Compound I-269]
5.00 to 6.00 | 5.00 to 6.00 | > 6.00 | – | CCCS(=O)(=O)Nc1ccc(-c2cncc(C#N)c2)nc1Oc1c(C)cc(C)nc1C [Compound I-242]
> 6.00 | > 6.00 | > 6.00 | – | Cc1cc(C)c(Oc2nc(-c3cn(C)nc3C)ccc2NS(C)(=O)=O)c(C)c1 [Compound I-283]
> 6.00 | > 6.00 | ≤ 4.60 | – | Cc1cc(C2CC2)nc(C)c1Oc1nc(-c2cncc(C#N)c2)ccc1NS(=O)(=O)C1CC1 [Compound I-264]
